In PubChem BioAssay (NCI):
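96-well plates; 48 h exposure; 5 concentrations. Endpoints by linear interpolation between flanking doses. Not reached: highest tested concentration assigned. At the TGI there is no net growth.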

What was measured:
Assay in all cases: NCI tumour cell line growth inhibition, 48 h
[1] = tested on: CCRF-CEM leukemia
[2] = tested on: HCT-15 colon
[3] = tested on: TK-10 renal
[4] = tested on: SN12C renal
[5] = tested on: UACC-257 melanoma
[6] = tested on: OVCAR-5 ovarian
[7] = tested on: ACHN renal
[8] = tested on: U251 CNS
[9] = tested on: NCI-H460 lung
[10] = tested on: UO-31 renal
[11] = tested on: HCC-2998 colon
[12] = tested on: HOP-92 NSCLC
[13] = tested on: NCI-H23 lung
[14] = tested on: SW-620 colon
[15] = tested on: HT29 colon
[16] = tested on: RPMI-8226 leukemia
[17] = tested on: SF-268 CNS
[18] = tested on: MDA-N
[19] = tested on: LOX IMVI melanoma
[20] = tested on: OVCAR-8 ovarian
[21] = tested on: A498 renal
[22] = tested on: OVCAR-4 ovarian
[23] = tested on: SNB-19 CNS
[24] = tested on: NCI-H226 lung
[25] = tested on: T-47D breast
[26] = tested on: RXF 393 renal
[27] = tested on: SK-OV-3 ovarian
[28] = tested on: HL-60(TB) leukemia
[29] = tested on: CAKI-1 renal
[30] = tested on: SR leukemia
[31] = tested on: MDA-MB-231 breast
[32] = tested on: UACC-62 melanoma
[33] = tested on: NCI-H522 lung
[34] = tested on: A549 NSCLC
[35] = tested on: SF-539 CNS
[36] = tested on: OVCAR-3 ovarian
[37] = tested on: K-562 leukemia
[38] = tested on: SK-MEL-28 melanoma
[39] = tested on: HS 578T breast
[40] = tested on: SF-295 CNS
[41] = tested on: KM12 colon
[42] = tested on: SNB-75 CNS
[43] = tested on: MOLT-4 leukemia
[44] = tested on: COLO 205 colon
[45] = tested on: M14 melanoma
[46] = tested on: IGROV1 ovarian
[47] = tested on: DU-145 prostate
[48] = tested on: HCT-116 colon
[49] = tested on: HOP-62 NSCLC
[50] = tested on: PC-3 prostate
[51] = tested on: MDA-MB-435
[52] = tested on: SK-MEL-5 melanoma
[53] = tested on: EKVX NSCLC
[54] = tested on: MCF7 breast
[55] = tested on: BT-549 breast
[56] = tested on: 786-0 renal
[57] = tested on: NCI/ADR-RES ovarian
[58] = tested on: MALME-3M melanoma
[59] = tested on: SK-MEL-2 melanoma

Structure (SMILES): O=C1OC(c2ccccc2)=NC1c1ccccc1 (stereo not drawn)
- TGI [1]: > 100 µM
- TGI [2]: > 100 µM
- TGI [3]: > 100 µM
- TGI [4]: > 100 µM
- TGI [5]: > 100 µM
- TGI [6]: > 100 µM
- TGI [7]: > 100 µM
- TGI [8]: > 100 µM
- TGI [9]: > 100 µM
- TGI [10]: > 100 µM
- TGI [11]: > 100 µM
- TGI [12]: > 100 µM
- TGI [13]: > 100 µM
- TGI [14]: > 100 µM
- TGI [15]: > 100 µM
- TGI [16]: > 100 µM
- TGI [17]: > 100 µM
- TGI [18]: > 100 µM
- TGI [19]: > 100 µM
- TGI [20]: > 100 µM
- TGI [21]: > 100 µM
- TGI [22]: > 100 µM
- TGI [23]: > 100 µM
- TGI [24]: > 100 µM
- TGI [25]: > 100 µM
- TGI [26]: > 100 µM
- TGI [27]: > 100 µM
- TGI [28]: > 100 µM
- TGI [29]: > 100 µM
- TGI [30]: > 100 µM
- TGI [31]: > 100 µM
- TGI [32]: > 100 µM
- TGI [33]: > 100 µM
- TGI [34]: > 100 µM
- TGI [35]: > 100 µM
- TGI [36]: > 100 µM
- TGI [37]: > 100 µM
- TGI [38]: > 100 µM
- TGI [39]: > 100 µM
- TGI [40]: > 100 µM
- TGI [41]: > 100 µM
- TGI [42]: > 100 µM
- TGI [43]: > 100 µM
- TGI [44]: > 100 µM
- TGI [45]: > 100 µM
- TGI [46]: > 100 µM
- TGI [47]: > 100 µM
- TGI [48]: > 100 µM
- TGI [49]: > 100 µM
- TGI [50]: > 100 µM
- TGI [51]: > 100 µM
- TGI [52]: > 100 µM
- TGI [53]: > 100 µM
- TGI [54]: > 100 µM
- TGI [55]: > 100 µM
- TGI [56]: > 100 µM
- TGI [57]: > 100 µM

Structure (SMILES): CCCn1c2c(c3ccccc3c1=O)C(=O)c1ccccc1-2
- TGI [1]: > 100 µM
- TGI [2]: > 100 µM
- TGI [3]: > 100 µM
- TGI [4]: > 100 µM
- TGI [5]: > 100 µM
- TGI [6]: > 100 µM
- TGI [7]: > 100 µM
- TGI [8]: > 100 µM
- TGI [9]: > 100 µM
- TGI [10]: > 100 µM
- TGI [11]: > 100 µM
- TGI [12]: > 100 µM
- TGI [13]: > 100 µM
- TGI [14]: > 100 µM
- TGI [15]: > 100 µM
- TGI [16]: > 100 µM
- TGI [17]: > 100 µM
- TGI [18]: > 100 µM
- TGI [19]: > 100 µM
- TGI [20]: > 100 µM
- TGI [21]: > 100 µM
- TGI [22]: > 100 µM
- TGI [23]: > 100 µM
- TGI [24]: > 100 µM
- TGI [25]: > 100 µM
- TGI [26]: > 100 µM
- TGI [27]: > 100 µM
- TGI [28]: 7.25 µM
- TGI [29]: > 100 µM
- TGI [30]: > 100 µM
- TGI [58]: > 100 µM
- TGI [31]: > 100 µM
- TGI [32]: > 100 µM
- TGI [33]: 39.6 µM
- TGI [34]: > 100 µM
- TGI [35]: > 100 µM
- TGI [59]: > 100 µM
- TGI [36]: > 100 µM
- TGI [37]: > 100 µM
- TGI [38]: > 100 µM
- TGI [39]: > 100 µM
- TGI [40]: > 100 µM
- TGI [41]: > 100 µM
- TGI [42]: > 100 µM
- TGI [43]: > 100 µM
- TGI [44]: > 100 µM
- TGI [45]: > 100 µM
- TGI [46]: > 100 µM
- TGI [47]: > 100 µM
- TGI [48]: > 100 µM
- TGI [49]: > 79.6 µM
- TGI [50]: > 100 µM
- TGI [51]: > 100 µM
- TGI [52]: > 100 µM
- TGI [53]: > 100 µM
- TGI [54]: > 100 µM
- TGI [55]: > 100 µM
- TGI [56]: > 100 µM
- TGI [57]: > 100 µM

Structure (SMILES): O=C(O)C1=C/C(=C(/c2ccccc2)c2cc(C(=O)O)c(O)c3ccccc23)c2ccccc2C1=O
- TGI [1]: > 100 µM
- TGI [2]: > 100 µM
- TGI [3]: > 100 µM
- TGI [4]: > 100 µM
- TGI [5]: > 100 µM
- TGI [6]: > 100 µM
- TGI [7]: > 100 µM
- TGI [8]: > 100 µM
- TGI [9]: > 100 µM
- TGI [10]: > 100 µM
- TGI [11]: > 100 µM
- TGI [12]: > 100 µM
- TGI [13]: > 100 µM
- TGI [14]: > 100 µM
- TGI [15]: > 100 µM
- TGI [16]: > 100 µM
- TGI [17]: > 100 µM
- TGI [18]: > 100 µM
- TGI [20]: > 100 µM
- TGI [21]: > 100 µM
- TGI [22]: > 100 µM
- TGI [23]: > 100 µM
- TGI [24]: > 100 µM
- TGI [25]: > 100 µM
- TGI [26]: > 100 µM
- TGI [27]: > 100 µM
- TGI [29]: > 100 µM
- TGI [30]: > 100 µM
- TGI [58]: > 100 µM
- TGI [31]: > 100 µM
- TGI [32]: > 100 µM
- TGI [33]: > 100 µM
- TGI [34]: > 100 µM
- TGI [35]: > 100 µM
- TGI [59]: > 100 µM
- TGI [36]: > 100 µM
- TGI [37]: > 100 µM
- TGI [38]: > 100 µM
- TGI [39]: > 100 µM
- TGI [40]: > 100 µM
- TGI [41]: > 100 µM
- TGI [42]: > 100 µM
- TGI [43]: > 100 µM
- TGI [44]: > 100 µM
- TGI [45]: > 100 µM
- TGI [46]: > 100 µM
- TGI [47]: > 100 µM
- TGI [48]: > 100 µM
- TGI [49]: > 100 µM
- TGI [50]: > 100 µM
- TGI [51]: > 100 µM
- TGI [52]: > 100 µM
- TGI [53]: > 100 µM
- TGI [54]: > 100 µM
- TGI [55]: > 100 µM
- TGI [56]: > 100 µM
- TGI [57]: > 100 µM
